Here are results for three compounds from publication PMC11901438, “Synthesis and Evaluation of Boron-Containing Heterocyclic Compounds with Antimicrobial and Anticancer Activities” (Molecules, 2025).

For one assay, the system named is C. albicans ATCC 90028. Description: Antifungal susceptibility test (CLSI M27-A3 microdilution, resazurin), MIC90. To be noted: Candida albicans, ATCC90028, read-out: C. albicans ATCC 90028 MIC90. (In general: Dilution methods test growth across graded concentrations, often in twofold steps.)
The test system of another assay is T. mentagrophytes. On the set-up: method as in PMID 29371574. To be noted: cited from earlier work.
The test system of the next assay is T. rubrum. Also on record: method as in PMID 29371574. To be noted: cited from earlier work.
Assay [1] has as its system T. mentagrophytes (ATCC 28185). Also on record: method as in PMID 17588934. To be noted: cited from earlier work.
For a further assay, the system named is M. gypseum (ATCC 24103). On the set-up: method as in PMID 17588934. To be noted: cited from earlier work.
On the set-up of assay [2]: method as in PMID 26640371. To be noted: cited from earlier work.
In assay [3] the test system is T. rubrum (ATCC 1890, ATCC 18759). Also on record: method as in PMID 17588934. To be noted: cited from earlier work.
The subject of assay [4] is M. audouinii (ATCC 42558). On the set-up: method as in PMID 17588934. To be noted: cited from earlier work.
Assay [5] deals with E. floccosum (ATCC 525066). On the set-up: method as in PMID 17588934. To be noted: cited from earlier work.
Assay [6] concerns the target leucyl-tRNA synthetase (LeuRS). On the set-up: method as in PMID 28953378, PMID 38365949. To be noted: cited from earlier work.
The subject of assay [7] is M. tuberculosis H37Rv strains. To be noted: cited from earlier work.

SMILES strings stand for the structures. In brackets after ≈: the same amount, converted by molar mass.

As a reminder, the MIC90 is the lowest concentration that inhibits either 90% of growth or 90% of the strains tested, depending on the study. Broadly, the MIC is the least concentration at which growth counts as inhibited. The IC50 is the concentration needed to halve the response being measured.

As for `CCC(C)n1ncn(-c2ccc(N3CCN(c4ccc(OCC5COC(Cn6cncn6)(c6ccc(Cl)cc6Cl)O5)cc4)CC3)cc2)c1=O` (stereo not shown) [Itraconazole], the MIC90 in the assay on C. albicans ATCC 90028 came to 0.00034 µM (≈ 0.00024 µg/mL).
As to `OB1OCc2cc(F)ccc21` [Tavaborole], the “MIC (fungistatic effects)” value in the assay with T. mentagrophytes and with T. rubrum was 8 mg/L (≈ 52.7 µM) each time. The MIC in [1] is 2.0 mg/L (≈ 13.2 µM); with M. gypseum (ATCC 24103), 2.0 mg/L (≈ 13.2 µM); in [3], 2.0 mg/L (≈ 13.2 µM); in assay [4] it was 2.0 mg/L (≈ 13.2 µM); in assay [5], 1.0 mg/L (≈ 6.58 µM). Further, the “rate of complete cure” value in assay [2] is not above 10%. The “rate of mycological cure” value in assay [2] is listed as “up to 36%”.
Consider `NC[C@H]1OB(O)c2c(OCCO)ccc(Cl)c21` [ganfeborole, (S)-3-(aminomethyl)-4-chloro-7-(2-hydroxyethoxy)benzo[c][1,2]oxaborol-1(3H)-ol], for which, in assay [6], the IC50 was 0.2 µM. In assay [7], the MIC90 is 0.08 µM (≈ 0.0206 µg/mL) and the “MIC against M. tuberculosis H37Rv strains” value was 0.08 µM (≈ 0.0206 µg/mL).
